Values quoted from earlier work in publication PMC11292818 (ACS Omega, 2024).

Biological target: acetylcholinesterase (AChE) (Homo sapiens, UniProt P22303)
Conditions: read-out: IC50 against acetylcholinesterase

Chain of acetylcholinesterase (AChE) (P22303 32-614, species assumed): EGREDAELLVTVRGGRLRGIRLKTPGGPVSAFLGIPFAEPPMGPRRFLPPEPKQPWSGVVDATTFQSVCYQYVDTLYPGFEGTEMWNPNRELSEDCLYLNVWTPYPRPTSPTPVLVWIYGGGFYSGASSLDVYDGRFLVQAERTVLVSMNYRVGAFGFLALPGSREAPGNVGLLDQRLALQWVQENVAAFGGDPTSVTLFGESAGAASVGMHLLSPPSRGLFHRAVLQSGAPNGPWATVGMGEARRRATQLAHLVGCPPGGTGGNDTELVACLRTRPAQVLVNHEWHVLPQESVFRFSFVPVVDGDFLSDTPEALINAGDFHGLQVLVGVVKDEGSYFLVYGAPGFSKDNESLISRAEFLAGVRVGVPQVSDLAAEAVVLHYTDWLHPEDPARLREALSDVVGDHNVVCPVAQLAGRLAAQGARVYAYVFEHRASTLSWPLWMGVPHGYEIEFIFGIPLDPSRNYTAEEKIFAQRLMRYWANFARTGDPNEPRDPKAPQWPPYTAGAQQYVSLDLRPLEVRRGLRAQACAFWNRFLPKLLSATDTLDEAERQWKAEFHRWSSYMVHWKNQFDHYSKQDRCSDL

## COc1cc(O)c(OC)c(O)c1C(=O)/C=C/c1ccccc1 [Compound 3, 2′,4′-dihydroxy-3′,6′-dimethoxychalcone]
  IC50: 20.1 µM

## CC(C)=CCc1c(O)ccc(C(=O)/C=C/c2ccc(O)cc2)c1O [Compound 4, isobavachalcone]
  IC50: 18.3 µM
